Reference: patent US9782400B2, “Oncogenic ROS1 and ALK kinase inhibitor” (Macau University of Science and Technology, priority 2015, dated 2017)
Blank lines part the entries; values can stand above or below the molecule they belong to.

Assays:
[1] = tested on: ROS1-positive NSCLC; conditions: NSCLC patients harboring ROS1 rearrangements; cited from earlier work
[2] = tested on: ROS1 fusion kinase; experiment: Western blot of ROS1 phosphorylation and downstream signaling in HCC78 cells; assay type: cell-based; conditions: HCC78 cells, 1.25, 2.5, 5 μM, 72 h
Procedure: The cells were planted on 6-well plate, allowed to attach for 24 h, and treated with the various concentrations of the compound of Formula (Ic) for 72 h. Cells were washed twice with cold PBS then lysed in RIPA lysis buffer containing protease and phosphatase inhibitors. Protein concentration of the cell lysates was measured using the Bio-Rad protein Assay kit (Bio-Rad, 7 Philadelphia, Pa., USA). After equalizing the protein concentrations of the samples, 5× laemmli buffer was added and the samples were boiled at 100° C. for 5 min. Equal amounts of protein samples (30 μg) were subjected to SDS-PAGE of a 10% gel. The separated proteins were transferred to a nitrocellulose (NC) membrane, which was then exposed to 5% non-fat dried milk in TBS containing 0.1% Tween (0.1% TBST) for 1 h at room temperature, followed by overnight incubation at 4° C. with primary antibodies to GAPDH, phospho-AKT, AKT, phospho-ROS1, ROS1, phospho-ERK, ERK, phospho-STAT3, STAT3. After washing three times by TBST (5 mins/time), the membranes were incubated for 1 h at room temperature with the secondary fluorescent antibodies (1:10000 dilutions) to rabbit or mouse. The signal intensity of the membranes was detected by an LI-COR Odessy scanner (Belfast, Me., USA).

[3] = tested on: H2228 cells; experiment: Apoptosis assay (Annexin-V FITC/PI flow cytometry) in H2228 cells; assay type: cell-based; conditions: 48 h
Procedure: H2228 cells (1.0×10^5 cells/well) were allowed to attach in a 6-well plate for 24 h. The cells were treated with various concentrations of the compound of Formula (Ic), namely 1.25, 2.5 and 5 μM, for 48 h. Subsequently, cells were trypsinized, washed with PBS twice, then the cells were resuspended in a total volume of 100 μL binding buffer with 2 μL Annexin-V FITC and 5 μL propidine iodide (PI). Finally, the cells were gently mixed and incubated in the dark at room temperature for 15 min, before further addition of 400 μL of 1× Annexin-binding buffer, the number of apoptotic cells was quantified using a Flow Cytometer (BD Biosciences, San Jose, Calif., USA) within 1 h. Data were analyzed by Flow Jo software.

[4] = tested on: HCC78 NSCLC cells; experiment: MTT assay, cell viability of HCC78 cells; assay type: cell-based
Procedure: (§1) To show the highly cytotoxic and selective properties of the present compound of Formula (Ic), HCC78 NSCLC cells and normal lung epithelial cells (BEAS-2B) were treated with the compound of Formula (Ic) and respective effects were observed. HCC78 NSCLC cells are non-small cell lung cancer cells with a ROS1 gene fusion. HCC78 cells were obtained from the American Type Culture Collection (ATCC) and cultured in environment of 5% CO2 at 37° C. in RPMI-1640 medium supplemented with 10% fetal bovine serum (FBS), 100 units/mL penicillin, and 100 μg/mL streptomycin. The compound of Formula (Ic) was dissolved in DMSO. Using a MTT assay, 3000 HCC78 or BEAS-2B cells were seeded on 96-well plates, cultured overnight for cell adhesion, and treated with DMSO or various concentrations of the compound of Formula (Ic) for 72 h. Three independent tests were performed. 10 μL of MTT (5 mg/mL; Sigma) were added to each well, and incubation continued for another 4 h. Then the dark blue crystals were dissolved in 100 μL of the resolved solution (10% SDS and 0.1 mM HCL). The absorbance was measured at 570 nm by a microplate reader (Tecan, Morrisville, N.C., USA).
(§2) The cell viability was calculated relative to untreated controls, with results based on at least three independent experiments. […] The compound of Formula (Ic) exerts a 3.75-fold cytotoxicity towards cancer cells than normal healthy cells.

[5] = tested on: ALK fusion kinase; experiment: Western blot of ALK phosphorylation and downstream signaling in H2228 cells; assay type: cell-based; conditions: H2228 cells, 1.25, 2.5, 5 μM
Procedure: Equal amounts of the protein samples (20-40 μg per lane) were separated on a 10% SDS-PAGE gel, then proteins were transferred onto Nitrocellulose (NC) membrane at 300 mA for 2.5 hours at 4° C., the membranes was probed with primary antibodies overnight at 4° C. which was then exposed to 5% non-fat dry milk in TBST for 1 h at room temperature with constant agitation and, then, rabbit or mouse fluorescent antibodies (1:1000) were added to the membrane at room temperature for 1 h. Visualization was performed using a LI-COR Odessy scanner (Belfast, Me., USA). All primary antibodies were diluted 1:1000, while their recommended secondary antibodies were diluted 1:10000.

[6] = tested on: BEAS-2B cells; experiment: MTT assay, normal lung epithelial cells (Example 1A); assay type: cell-based; conditions: Homo sapiens, 72 h treatment
Procedure: as §1, §2

[7] = tested on: BEAS-2B cells; experiment: MTT assay, human bronchial epithelial cells (Example 2A); assay type: cell-based; conditions: 72 h treatment
Procedure: (§3) H2228 (which express EML4-ALK fusion kinases, namely variant 3) and BEAS-2B cells were obtained from the American Type Culture Collection and cultured in environment of 5% CO2 at 37° C. in RPMI-1640 medium supplemented with 10% fetal bovine serum (FBS), 100 units/mL penicillin, and 100 μg/mL streptomycin.
(§4) The cytotoxicity effect of the compound of Formula (Ic) on H2228 NSCLC cells (harboring ALK fusion) and human bronchial epithelial (BEAS-2B) have been analyzed. H2228 cells were cultured in 96-well plates at a density of 3×10^3 cells/well, and were cultured overnight for cell adhesion. Then the cells were treated with DMSO or various concentrations of the compound of Formula (Ic) for 72 h. To each well 10 μL MTT (5 mg/mL) (Sigma) was added and the cells were incubated for another 4 h at 37° C., followed by adding 100 μL acidic isopropanol (10% SDS, and 0.01 mol/L HCl). Finally, the optical density (OD) of each well was measured at 570 nm by the Microplate Reader (Epoch, Winooski, USA). The cell viability was calculated relative to untreated controls, with results based on at least three independent experiments.

[8] = tested on: H2228 cells; experiment: Colony formation assay in H2228 cells; assay type: cell-based; conditions: 14 days
Procedure: H2228 cells were seeded to six-well plate (1000/well). Then cells were exposed to various doses of the compound of Formula (Ic), namely 1.25, 2.5 and 5 μM. After 14 days, colonies were fixed with 4% paraformaldehyde for 15 min and stained with crystal violet for 10-15 min. Finally, the staining solution was slowly washed off with water and the cells were air dried. Clones with more than 50 cells were counted under a microscope.

[9] = tested on: HCC78 cells; experiment: Apoptosis assay (Annexin-V FITC/PI, fluorescence images and flow cytometry) in HCC78 cells; assay type: cell-based; conditions: 72 h
Procedure: HCC78 cells (1.0×10^5 cells/well) were allowed to attach to a 6-well plate for 24 h, and the cells were treated with the various concentrations of the compound of Formula (Ic) for additional 72 h. At the end of incubation, the cells were harvested by trypsinization and washed twice with ice-cold PBS. After centrifugation and removal of the supernatants, cell pellets were resuspended in 100 μL 1× Annexin-binding buffer, 2 μL Annexin-V FITC and 2 μL PI (100 μg/ml) were added and incubated in the dark at room temperature for 15 min before further addition of 400 μL of 1× Annexin-binding buffer. The stained cells were analyzed quantitatively using a flow cytometer (BD Biosciences, San Jose, Calif., USA). […] Such cell morphology indicates apoptosis.

[10] = tested on: H2228 NSCLC cells; experiment: MTT assay, cell viability of H2228 cells; assay type: cell-based; conditions: Homo sapiens, NCI-H2228, 72 h treatment
Procedure: as §3, §4

SMILES: C[C@@H](Oc1cc(-c2cnn(C3CCNCC3)c2)cnc1N)c1c(Cl)ccc(F)c1Cl [crizotinib]
median progression-free survival [1]: 19.2 months
objective response rate [1]: 72%

IC50 ([4]; Homo sapiens, HCC78 cells, MTT, 72 h treatment): 1.62 µM
IC50 [10]: 2.71 ± 0.92 µM
SMILES: COc1ccc(CNC(=O)Cn2nc(-c3ccccc3)c3cnc4ccccc4c32)cc1 [compound of Formula (Ic)]
ROS1 phosphorylation and downstream signaling involving Erk1/2, STAT3 and AKT [2]: dose-dependent decrease
induction of apoptosis (flow cytometry) ([3]; H2228 cells, 1.25, 2.5, 5 μM): induction of apoptosis of H2228 cells in a concentration-dependent manner
level of cell apoptosis compared with control group ([3]; H2228 cells, concentration of at least 5 μM): significant levels of cell apoptosis
fold cytotoxicity towards cancer cells than normal healthy cells ([4]; HCC78 versus BEAS-2B, 72 h): 3.75 fold
ALK phosphorylation and downstream PI3K/AKT, MEK/ERK and JAK/STAT3 signaling pathways [5]: significant suppression
IC50 [6]: 6.08 µM
IC50 [7]: 6.51 ± 1.08 µM
formation of H2228 cell colonies ([8]; 5 μM): no visible colonies
formation of H2228 cell colonies ([8]; 1.25, 2.5, 5 μM): inhibited the formation of H2228 cell colonies in a dose-dependent manner
cell morphology indicating apoptosis (fluorescence images) ([9]; HCC78 cells, 2.5 μM): detach from the surface and are small
induction of apoptosis (flow cytometry) ([9]; HCC78 cells, 1.25, 2.5, 5 μM): induction of apoptosis on HCC78 cells in a concentration dependent manner
